From PubChem BioAssay AID248 (DTP/NCI, 2004)
Inconclusive results and toxic doses are left out. Rule as the data show it: active = T/C of 150% or more; inactive = T/C below 125%. Square brackets hold non-standard residues; d marks the D form. Peptide text beside a SMILES is read from it. * marks the point of attachment. ξ: configuration not given here. Cbz = O=C(OCc1ccccc1)*; ξD = NC(CC(=O)O)C(=O)O

Tested on: L1210 leukemia ip in BDF1 mice, survival T/C
Test: NCI In Vivo Anticancer Drug Screen. Data for tumor model L1210 Leukemia (intraperitoneal) in B6D2F1 (BDF1) mice
Conditions: endpoint: mean survival time, higher = longer survival
Summary of the method: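 Tumor was transplanted into mice, which were then dosed with test compound or vehicle alone. Survival was recorded for each group, and the treated figure was expressed relative to the control figure.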

[1] = dose: 100.0 mg/kg/injection, schedule: Q01DX009 (ip), vehicle: Klucel (hydroxypropylcellulose) (HPC)
[2] = dose: 100.0 mg/kg/injection, schedule: Q04DX003 (ip), vehicle: Klucel (hydroxypropylcellulose) (HPC)
[3] = dose: 200.0 mg/kg/injection, schedule: Q01DX009 (ip), vehicle: Klucel (hydroxypropylcellulose) (HPC)
[4] = dose: 200.0 mg/kg/injection, schedule: Q04DX003 (ip), vehicle: Klucel (hydroxypropylcellulose) (HPC)
[5] = dose: 400.0 mg/kg/injection, schedule: Q01DX009 (ip), vehicle: Klucel (hydroxypropylcellulose) (HPC)
[6] = dose: 400.0 mg/kg/injection, schedule: Q04DX003 (ip), vehicle: Klucel (hydroxypropylcellulose) (HPC)
[7] = dose: 100.0 mg/kg/injection, schedule: Q01DX001 (ip), vehicle: saline
[8] = dose: 200.0 mg/kg/injection, schedule: Q01DX001 (ip), vehicle: saline
[9] = dose: 400.0 mg/kg/injection, schedule: Q01DX001 (ip), vehicle: saline
[10] = dose: 50.0 mg/kg/injection, schedule: Q01DX009 (ip), vehicle: Klucel (hydroxypropylcellulose) (HPC)
[11] = dose: 100.0 mg/kg/injection, schedule: Q01DX009 (ip), vehicle: saline
[12] = dose: 200.0 mg/kg/injection, schedule: Q01DX009 (ip), vehicle: saline
[13] = dose: 400.0 mg/kg/injection, schedule: Q01DX009 (ip), vehicle: saline
[14] = dose: 100.0 mg/kg/injection, schedule: Q01DX009 (ip), vehicle: saline with Tween-80
[15] = dose: 200.0 mg/kg/injection, schedule: Q01DX009 (ip), vehicle: saline with Tween-80
[16] = dose: 400.0 mg/kg/injection, schedule: Q01DX009 (ip), vehicle: saline with Tween-80

Measured: T/C

Cc1cn(CC(C)C)c(=O)n(-c2ccccc2)c1=O
inactive: dose: 100.0 mg/kg/injection, schedule: Q01DX Z (ip), vehicle: methylcellulose (MC) 95 % of control

C=CC(=O)NC(=O)/C=C/c1cccnc1
inactive: dose: 100.0 mg/kg/injection, schedule: Q04DX002 (ip), vehicle: Klucel (hydroxypropylcellulose) (HPC) 117 % of control | dose: 200.0 mg/kg/injection, schedule: Q04DX002 (ip), vehicle: Klucel (hydroxypropylcellulose) (HPC) 106 % of control | dose: 400.0 mg/kg/injection, schedule: Q04DX002 (ip), vehicle: Klucel (hydroxypropylcellulose) (HPC) 120 % of control

COC(=O)C1C2CC3C(OC(=O)C31)C2Br (configuration not stated)
inactive: dose: 100.0 mg/kg/injection, schedule: Q01DX001 (ip), vehicle: Klucel (hydroxypropylcellulose) (HPC) 98 % of control | [1] 102 % of control | [2] 104 % of control | dose: 200.0 mg/kg/injection, schedule: Q01DX001 (ip), vehicle: Klucel (hydroxypropylcellulose) (HPC) 103 % of control | [3] 93 % of control | [4] 105 % of control | dose: 400.0 mg/kg/injection, schedule: Q01DX001 (ip), vehicle: Klucel (hydroxypropylcellulose) (HPC) 109 % of control | [5] 94 % of control | [6] 107 % of control

CCCCCCCCCCCCCCCCOc1ccccn1
inactive: [1] 96 % of control | [2] 92 % of control | [3] 96 % of control | [4] 95 % of control | [5] 98 % of control | [6] 90 % of control

CC(C)(O)C(CO)c1ccccc1 (configuration not stated)
inactive: [7] 96 % of control

Cc1ccc(S(=O)(=O)/N=S(/C)CC/S(C)=N/S(=O)(=O)c2ccc(C)cc2)cc1 (configuration not stated)
inactive: [1] 102 % of control | [3] 105 % of control | [5] 100 % of control

COC(=O)c1cc(C)[nH]c2c(C)cc3nc4ccccc4c3c12
inactive: dose: 50.0 mg/kg/injection, schedule: Q01DX001 (ip), vehicle: saline 95 % of control | [7] 98 % of control | [8] 101 % of control | [9] 104 % of control

O=C(O)CC(NC(=O)CNC(=O)OCc1ccccc1)C(=O)O (stereo not drawn) (Cbz-Gly-[ξD]-OH)
inactive: [10] 93 % of control | dose: 50.0 mg/kg/injection, schedule: Q04DX003 (ip), vehicle: Klucel (hydroxypropylcellulose) (HPC) 94 % of control | [1] 93 % of control | [2] 98 % of control | [3] 95 % of control | [4] 94 % of control

COC(=O)CCCNC(=O)/C=C1/c2cc(OC)c(OC)cc2CCC1S(=O)(=O)OC (configuration not stated)
inactive: [11] 100 % of control | dose: 100.0 mg/kg/injection, schedule: Q04DX003 (ip), vehicle: saline 105 % of control | [12] 110 % of control | dose: 200.0 mg/kg/injection, schedule: Q04DX003 (ip), vehicle: saline 97 % of control | [13] 88 % of control | dose: 400.0 mg/kg/injection, schedule: Q04DX003 (ip), vehicle: saline 100 % of control

ClCCn1nc2c(c1-c1ccc(Cl)cc1)CCc1ccccc1-2
inactive: dose: 100.0 mg/kg/injection, schedule: Q04DX003 (ip), vehicle: gum acacia 92 % of control | dose: 200.0 mg/kg/injection, schedule: Q04DX003 (ip), vehicle: gum acacia 98 % of control | dose: 400.0 mg/kg/injection, schedule: Q04DX003 (ip), vehicle: gum acacia 95 % of control

COC(=O)C1=CC2c3ccccc3C1c1ccccc12
inactive: [14] 89 % of control | [15] 105 % of control | [16] 98 % of control

Cc1ccc([N+](=O)[O-])o1
inactive: dose: 100.0 mg/kg/injection, schedule: Q04DX003 (ip), vehicle: saline with Tween-80 91 % of control | dose: 200.0 mg/kg/injection, schedule: Q04DX003 (ip), vehicle: saline with Tween-80 87 % of control

COc1cc2c(cc1OC(C)=O)CCCCC2=O
inactive: [7] 101 % of control | [8] 103 % of control | [9] 101 % of control

CCN1CCC2=C(CCCC2O)C1 (configuration not stated)
inactive: dose: 75.0 mg/kg/injection, schedule: Q01DX001 (ip), vehicle: steriod suspending solution 104 % of control | dose: 150.0 mg/kg/injection, schedule: Q01DX001 (ip), vehicle: steriod suspending solution 98 % of control

CCCc1cc2c3c(c(=O)oc2cc1OCCN1CCCC1)CCCC3
inactive: dose: 37.5 mg/kg/injection, schedule: Q01DX001 (ip), vehicle: saline with Tween-80 92 % of control | dose: 37.5 mg/kg/injection, schedule: Q04DX003 (ip), vehicle: saline with Tween-80 96 % of control | dose: 75.0 mg/kg/injection, schedule: Q01DX001 (ip), vehicle: saline with Tween-80 94 % of control | dose: 75.0 mg/kg/injection, schedule: Q04DX003 (ip), vehicle: saline with Tween-80 100 % of control | dose: 150.0 mg/kg/injection, schedule: Q01DX001 (ip), vehicle: saline with Tween-80 100 % of control | dose: 150.0 mg/kg/injection, schedule: Q04DX003 (ip), vehicle: saline with Tween-80 98 % of control

C=CCSc1nccnc1C
inactive: [10] 100 % of control | [1] 103 % of control | [3] 110 % of control

Cc1ccc(S(=O)(=O)N2CCC(C(=O)O)(c3ccccc3)CC2)cc1
inactive: [14] 117 % of control | [15] 101 % of control | [16] 95 % of control

OC(Cc1ccnc2ccccc12)C(Cl)(Cl)Cl (configuration not stated)
inactive: [11] 95 % of control | [12] 101 % of control | [13] 95 % of control

Cc1cc(C[P+](c2ccccc2)(c2ccccc2)c2ccccc2)c(C[P+](c2ccccc2)(c2ccccc2)c2ccccc2)cc1C
inactive: dose: 1.5 mg/kg/injection, schedule: Q04DX003 (ip), vehicle: saline 104 % of control | dose: 3.0 mg/kg/injection, schedule: Q01DX009 (ip), vehicle: saline 97 % of control | dose: 3.0 mg/kg/injection, schedule: Q04DX003 (ip), vehicle: saline 106 % of control | dose: 6.0 mg/kg/injection, schedule: Q01DX009 (ip), vehicle: saline 94 % of control | dose: 6.0 mg/kg/injection, schedule: Q04DX003 (ip), vehicle: saline 98 % of control

O=C(O)CN(CCN(CC(=O)O)CC(=O)O)CCN(CC(=O)O)CC(=O)O
inactive: dose: 100.0 mg/kg/injection, schedule: Q01DX001 (ip), vehicle: carboxymethylcellulose (CMC) 93 % of control | dose: 400.0 mg/kg/injection, schedule: Q01DX001 (ip), vehicle: carboxymethylcellulose (CMC) 96 % of control

CCCCN(C)N=Nc1ccc(S(N)(=O)=O)cc1
inactive: dose: 30.0 mg/kg/injection, schedule: Q01DX Z (ip), vehicle: carboxymethylcellulose (CMC) 92 % of control | dose: 60.0 mg/kg/injection, schedule: Q01DX Z (ip), vehicle: carboxymethylcellulose (CMC) 92 % of control | dose: 90.0 mg/kg/injection, schedule: Q01DX Z (ip), vehicle: carboxymethylcellulose (CMC) 105 % of control
